Results: patent US9211310B2, “Use of a Chinese medicine composition in preparing medicaments for treating secondary prevention of myocardial infarction” (TASLY PHARMACEUTICAL GROUP CO., LTD, priority 2010, dated 2015)

System: patients after acute myocardial infarction
Test: Life quality, Seattle Angina Questionnaire (SAQ), same clinical trial
Type: in vivo, human
Conditions: FAS
From the text: 3508 patients who were in accordance with the diagnostic standards of AMI for 28 days to 2 years and differentiated as Qi deficiency and blood stagnation syndrome by TCM were studied. 0.5 g Chinese medicine composition prepared by the method of EXAMPLE 1 (Coded as QSYQ) was administrated half an hour after meal, 3 times per day.
There were 19 questions in the Seattle angina questionnaire (SAQ), including 5 parts: physical limitation (PL), anginal stability (AS), anginal frequency (AF), treatment satisfaction (TS) and disease perception (DP). After being given necessary explanation by doctors, the questions were answered independently by patients.
They included the overall survival time, angina pectoris score, TCM symptom score and life quality score, where angina pectoris score, TCM symptom score and life quality score were evaluated at randomization, in 1st, 3rd, 6th, 9th, 12th month after treatment and 18th month after follow-up.
All evaluation results of SAQ were described during the period of observation, and Wilcoxon rank sum test was used for inter-group comparison.
The evaluation results in the SAQ were depicted in different observations, and inter-group comparison was tested by Wilcoxon Rank-sum test.

SMILES: CC(=O)Oc1ccccc1C(=O)O [Control group, aspirine]
- SAQ Question 1-1 Other reasons, percent of patients (9 months after treatment): (0.17%)
- SAQ Question 1-1 Severely limited, number of patients (9 months after treatment): 1
- SAQ Question 1-1 Severely limited, percent of patients (9 months after treatment): (0.06%)
- SAQ Question 1-1 Slightly limited, number of patients (9 months after treatment): 67
- SAQ Question 1-1 Slightly limited, percent of patients (9 months after treatment): (3.84%)
- SAQ Question 1-2 Mildly limited, number of patients (9 months after treatment): 29
- SAQ Question 1-2 Mildly limited, percent of patients (9 months after treatment): (1.66%)
- SAQ Question 1-2 Moderately limited, number of patients (9 months after treatment): 7
- SAQ Question 1-2 Moderately limited, percent of patients (9 months after treatment): (0.40%)
- SAQ Question 1-2 Not limited, number of patients (9 months after treatment): 1631
- SAQ Question 1-2 Not limited, percent of patients (9 months after treatment): (93.52%)
- SAQ Question 1-2 Other reasons, number of patients (9 months after treatment): 5
- SAQ Question 1-2 Other reasons, percent of patients (9 months after treatment): (0.29%)
- SAQ Question 1-2 Severely limited, number of patients (9 months after treatment): 0
- SAQ Question 1-2 Severely limited, percent of patients (9 months after treatment): (0.00%)
- SAQ Question 1-2 Slightly limited, number of patients (9 months after treatment): 72
- SAQ Question 1-2 Slightly limited, percent of patients (9 months after treatment): (4.13%)
- SAQ Question 1-6: Mildly limited, patients (%) (9 months after treatment): (15.79%)
- SAQ Question 1-6: Moderately limited, patients (%) (9 months after treatment): (11.08%)
- SAQ Question 1-6: Not limited, patients (%) (9 months after treatment): (37.31%)
- SAQ Question 1-6: Other reasons, patients (%) (9 months after treatment): (0.86%)
- SAQ Question 1-6: Severely limited, patients (%) (9 months after treatment): (2.93%)
- SAQ Question 1-6: Slightly limited, patients (%) (9 months after treatment): (32.03%)
- SAQ Question 1-7: Mildly limited, patients (%) (9 months after treatment): (21.69%)
- SAQ Question 1-7: Moderately limited, patients (%) (9 months after treatment): (11.86%)
- SAQ Question 1-7: Not limited, patients (%) (9 months after treatment): (17.87%)
- SAQ Question 1-7: Other reasons, patients (%) (9 months after treatment): (3.07%)
- SAQ Question 1-7: Severely limited, patients (%) (9 months after treatment): (14.29%)
- SAQ Question 1-7: Slightly limited, patients (%) (9 months after treatment): (31.23%)
- SAQ Question 1-8: Mildly limited, patients (%) (9 months after treatment): (24.55%)
- SAQ Question 1-8: Moderately limited, patients (%) (9 months after treatment): (15.03%)
- SAQ Question 1-8: Not limited, patients (%) (9 months after treatment): (11.96%)
- SAQ Question 1-8: Other limited, patients (%) (9 months after treatment): (3.60%)
- SAQ Question 1-8: Severely limited, patients (%) (9 months after treatment): (17.93%)
- SAQ Question 1-8: Slightly limited, patients (%) (9 months after treatment): (26.93%)
- 8th question: Dissatisfied, patients (%) (12 months after treatment): (0.29%)
- 8th question: Highly satisfied, patients (%) (12 months after treatment): (25.29%)
- 8th question: Mostly dissatisfied, patients (%) (12 months after treatment): (2.01%)
- 8th question: Mostly satisfied, patients (%) (12 months after treatment): (60.09%)
- 8th question: Partly satisfied, patients (%) (12 months after treatment): (12.33%)
- 9th question: Few, patients (%) (12 months after treatment): (39.74%)
- 9th question: Mild, patients (%) (12 months after treatment): (30.56%)
- 9th question: Moderate, patients (%) (12 months after treatment): (6.82%)
- 9th question: Severe, patients (%) (12 months after treatment): (0.97%)
- 9th question: Uneffective, patients (%) (12 months after treatment): (21.90%)
- 10th question: Dissatisfied, patients (%) (12 months after treatment): (19.50%)
- 10th question: Highly satisfied, patients (%) (12 months after treatment): (7.57%)
- 10th question: Mostly dissatisfied, patients (%) (12 months after treatment): (19.21%)
- 10th question: Mostly satisfied, patients (%) (12 months after treatment): (30.85%)
- 10th question: Partly dissatisfied, patients (%) (12 months after treatment): (22.88%)
- 11th question: Continuously worried, patients (%) (12 months after treatment): (3.15%)
- 11th question: No worried, patients (%) (12 months after treatment): (7.11%)
- 11th question: Occasionally worried, patients (%) (12 months after treatment): (40.60%)
- 11th question: Often worried, patients (%) (12 months after treatment): (9.23%)
- 11th question: Seldom worried, patients (%) (12 months after treatment): (39.91%)
- SAQ 4th question, 1-2 times per week: % of patients (12 months after treatment): (10.61%)
- SAQ 4th question, 1-2 times per week: number of patients (12 months after treatment): 185
- SAQ 4th question, 1-3 times per week: % of patients (12 months after treatment): (4.24%)
- SAQ 4th question, 1-3 times per week: number of patients (12 months after treatment): 74
- SAQ 4th question, <1 time per week: % of patients (12 months after treatment): (16.51%)
- SAQ 4th question, <1 time per week: number of patients (12 months after treatment): 288
- SAQ 4th question, Not used: % of patients (12 months after treatment): (64.56%)
- SAQ 4th question, Not used: number of patients (12 months after treatment): 1126
- SAQ 4th question, ≧3 times per week: % of patients (12 months after treatment): (3.96%)
- SAQ 4th question, ≧3 times per week: number of patients (12 months after treatment): 69
- SAQ 4th question, ≧4 times per day: % of patients (12 months after treatment): (0.11%)
- SAQ 4th question, ≧4 times per day: number of patients (12 months after treatment): 2
- SAQ 5th question, 1-2 times per week: % of patients (12 months after treatment): (32.00%)
- SAQ 5th question, 1-2 times per week: number of patients (12 months after treatment): 558
- SAQ 5th question, 1-3 times per day: % of patients (12 months after treatment): (6.14%)
- SAQ 5th question, 1-3 times per day: number of patients (12 months after treatment): 107
- SAQ 5th question, <1 time per week: % of patients (12 months after treatment): (29.93%)
- SAQ 5th question, <1 time per week: number of patients (12 months after treatment): 522
- SAQ 5th question, No onset: % of patients (12 months after treatment): (5.28%)
- SAQ 5th question, No onset: number of patients (12 months after treatment): 92
- SAQ 5th question, ≧3 times per week: % of patients (12 months after treatment): (25.86%)
- SAQ 5th question, ≧3 times per week: number of patients (12 months after treatment): 451
